Laboratory results reported in paper PMC6482291, “Anticonvulsant Activity of Pterostilbene in Zebrafish and Mouse Acute Seizure Tests” (Neurochemical Research, 2019).

Legend:
[1] = tested on: PTZ-induced epileptiform discharges in zebrafish larvae; experiment: Electrographic discharge assessment (LFP recordings from optic tectum) in zebrafish larvae exposed to PTZ; assay type: in vivo, Danio rerio; conditions: 10 µM PTE, 2 h incubation, 20 mM PTZ, 20 min recording
Procedure: For local field potential (LFP) recordings, zebrafish larvae were incubated for 2 h, as described above. After incubation, larvae were exposed to vehicle or 20 mM PTZ for 5 min. Thereafter, larvae were immobilized in a thin layer of 2% low-melting-point agarose and the glass electrode (resistance […]) filled with artificial cerebrospinal fluid (124 mM NaCl, 2 mM KCl, 2 mM MgSO4, 2 Mm CaCl2, 1.25 mM KH2PO4, 26 mM NaHCO3, 10 mM glucose) was placed into the optic tectum (MultiClamp 700B amplifier, Digidata 1440A digitizer, Axon instruments, USA). Single recordings for each larva were performed for a period of 20 min. The discharges were analyzed according to the duration of spiking paroxysms and only those where the amplitude exceeded three times the background noise were taken into account. The data were analyzed with the aid of Clampfit 10.2 software (Molecular Devices Corporation, USA).

[2] = tested on: PTZ-induced seizures in mice; experiment: Timed iv PTZ seizure threshold test in mice; assay type: in vivo; conditions: for threshold for the first myoclonic twitch vs negative control: p < 0.001
Procedure: Each mice was placed in the cylindrical restrainer and the needle (27G, 3/4 in., Sterican®, B. Braun Melsungen AG, Melsungen, Germany) was injected into the lateral tail vein. The needle was attached by the polyethylene drain (PE20RW, Plastic One Inc. Roanoke, VA, USA) with the syringe containing 1% solution of PTZ (Sigma–Aldrich, St. Louis, MO, USA) in water and the syringe was located in the infuse pomp (model Physio 22, Hugo Sachs Elektronik–Harvard Apparatus GmbH, March-Hugstetten, Germany). The correct placement of the needle in the vein was confirmed based on the presence of the blood in the drain and the needle was protected against displacement by a peace of adhesive tape. Following injection, mice were took out from the restrainer and placed in the Plexiglas box for observation. The PTZ solution was infused into the vein at a constant rate of 0.2 ml/min. The time intervals from the start of infusion of PTZ solution to the beginning of three kinds of seizures, i.e., the first myoclonic twitch, generalized clonus with loss of the righting reflex and forelimb tonic extension, were noted. Infusion of PTZ solution was stopped immediately after onset of the tonic seizures, which usually were lethal. If animal survived the test, it was euthanized immediately. The threshold dose of PTZ (in mg/kg body weight) for each kind of seizures was calculated according to the following formula: PTZmg/kg=infusion durations×infusion rateml/s×PTZ concentrationmg/ml/weightkg
Experimental groups consisted of 9–13 animals. The data obtained in the iv PTZ test are presented as the threshold dose of PTZ (in mg/kg) + standard error of the mean (SEM) needed to elicit the respective kind of seizures. The data were analyzed by one-way ANOVA followed by the Tukey’s multiple comparison test. Statistical significance was noted when p values were equal or lower than 0.05.

[3] = tested on: mice; experiment: Forced swim test; assay type: in vivo; conditions: PTE 50 to 200 mg/kg ip, data not shown
Procedure: The forced swim test was carried out according to the method described by Porsolt et al. to assess antidepressant properties of PTE. Mice were placed individually in a glass cylinder (25 cm high; 10 cm diameter) containing tap water to a depth of 11 cm. Water was maintained at temperature of 23–25 °C. Mice were permitted to swim for 6 min and duration of their immobility was recorded during the last 4 min of the test by a trained experimenter who was blinded to the treatment. Immobility time was recorded using cumulative stopwatches. Mouse was considered to be immobile when it was floating in the water without struggling and making no attempts to escape, it was making only these movements necessary to keep its head above the water. After each trial, the water in the cylinder was replaced with fresh water. Experimental groups consisted of 10 animals.
Data obtained in the forced swim test were expressed as the mean (in s) + SEM immobility time in each experimental group. Results were analyzed by one-way ANOVA.

[4] = tested on: mice; experiment: Grip-strength test; assay type: in vivo; conditions: for Neuromuscular strength: 30 min before test
Procedure: The acute effect of PTE on the skeletal muscles strength in mice was determined in the grip strength test. The apparatus for this test (BioSeb, Chaville, France) consisted of a steel wire grid (8 × 8 cm) connected to an isometric force transducer. Each mouse was lifted by tail and allowed to grasp the grid with its forepaws and then it was gently pulled backward until its released the grid. The maximal force in newtons (N) exerted by mouse before leaving the grid was recorded. The mean of three consecutive measurements for each animal was calculated and normalized to body weight (mN/g).
Experimental groups consisted of 12 animals. Results obtained in the grip-strength test were compared using one-way ANOVA followed by the Tukey’s post-hoc multiple comparison test.

[5] = tested on: mice; experiment: Chimney test; assay type: in vivo; conditions: for Impairment of motor coordination (percentage of animals): 30 min before test
Procedure: The chimney test was performed to evaluate influence of PTE on motor coordination in mice. During the test mice had to climb backwards up the plastic transparent cylinder (inner diameter 3 cm and length 30 cm) with gravelly inside. The inability of mice to escape from the cylinder within 60 s was considered as an motor impairment. Results obtained in the test were presented as percent of impaired mice in groups of 10–12 animals and were compared with the Fisher’s exact probability test.

[6] = tested on: maximal electroshock seizures; experiment: MES test (supramaximal stimulation); assay type: in vivo; conditions: ED50 could not be determined

Compound: COc1cc(/C=C/c2ccc(O)cc2)cc(OC)c1 [PTE, trans-3,5-dimethoxy-4′-hydroxy-trans-stilbene]
- mean duration of ictal-like discharges [1]: statistically significant reduction
- number of epileptiform discharges in the zebrafish brain ([1]; vs vehicle): significantly reduced
- total duration of epileptiform discharges in the zebrafish brain ([1]; vs vehicle): significantly reduced
- threshold for the first myoclonic twitch vs negative control ([2]; PTE 100 mg/kg ip, 30 min before test): Statistically significant increases
- threshold for the first myoclonic twitch vs negative control ([2]; PTE 200 mg/kg ip, 30 min before test): Statistically significant increases
- increase of threshold for generalized clonic seizures vs negative control ([2]; PTE 200 mg/kg ip, 30 min before test, p < 0.01): over 45%
- threshold for tonic forelimb extension vs negative control ([2]; PTE 50 to 200 mg/kg ip, 30 min before test): did not significantly affect
- time of highest anticonvulsant activity after ip administration (time-course effect) ([2]; iv PTZ test, data not shown): 30 min
- immobility time vs control [3]: did not significantly reduce
- Neuromuscular strength ([4]; PTE 50 mg/kg ip): 30.34 ± 1.16 mN/g
- Neuromuscular strength ([4]; PTE 100 mg/kg ip): 29.14 ± 0.95 mN/g
- Neuromuscular strength ([4]; PTE 200 mg/kg ip): 28.76 ± 2.16 mN/g
- Neuromuscular strength ([4]; PTE 400 mg/kg ip): 30.39 ± 2.17 mN/g
- Neuromuscular strength ([4]; PTE 600 mg/kg ip): 30.19 ± 0.97 mN/g
- Neuromuscular strength ([4]; PTE 800 mg/kg ip): 31.12 ± 1.44 mN/g
- influence on muscular strength ([4]; PTE 50 to 800 mg/kg ip): did not significantly influence
- Impairment of motor coordination (percentage of animals) ([5]; PTE 50 mg/kg ip): 0%
- Impairment of motor coordination (percentage of animals) ([5]; PTE 100 mg/kg ip): 0%
- Impairment of motor coordination (percentage of animals) ([5]; PTE 400 mg/kg ip): 0%
- Impairment of motor coordination (percentage of animals) ([5]; PTE 600 mg/kg ip): 0%
- influence on motor coordination ([5]; PTE 50–800 mg/kg ip): did not significantly influence
- anticonvulsant activity in the MES test [6]: lack of significant anticonvulsant activity
